In PubChem BioAssay (NCI) one finds TGI data, which are given here for 14 molecules.

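Each compound was tested at five concentrations against cells in 96-well plates for 48 hours. The concentration for full growth arrest is given as TGI.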

The first assay deals with UACC-257 melanoma. Description: inhibition of tumour cell growth, NCI panel, 48 h.
`COC(O)C(=O)c1c2c(cc3c1CC1(Cc4cc5c(cc4C1)CCC5)C3)CCC2` (centres undefined) gave a TGI of 33.1 µM.
With `CCC1NC(=O)C1NC(=O)OC` (centres undefined), the TGI was over 100 µM.

A further assay concerns 786-0 renal. Description: inhibition of tumour cell growth, NCI panel, 48 h.
As to `COc1ccc2c(C)cc(N/N=C(\C)C=O)nc2c1`, the TGI was 28.6 µM.
On the same count and under the same terms, to `S=c1sc2c(s1)SCCCCSCCCCSc1sc(=S)sc1SCCCCSCCCCS2` belongs over 100 µM; to `COc1ccc2oc(=N)c(C(=O)NCc3ccccc3)cc2c1`, over 100 µM; to `O=C1c2ccccc2S(=O)(=O)c2c1cccc2[N+](=O)[O-]`, 3.13 µM.
Same read-out and setting: the same measure for `O=C(CCCN1CCC2(CC1)OC(=O)N(c1ccccc1)C2=O)c1ccccc1`: over 100 µM.
Same read-out and setting: to `O=C1c2c(ccc3c2CCCC3)CC12Cc1ccc3c(c1C2=O)CCCC3` belongs over 100 µM.
As to `CCOC(CN=C=S)OCC`, the TGI is over 10 µM.
On the same count and under the same terms, the same measure for `O=CC(=C(I)I)c1ccccc1`: 5.78 µM; for `O=C1C=C2C(=NC34CCCCC3C(c3ccccc3)C3=C(c5ccccc5CC3)N24)c2ccccc21` (centres undefined): over 10 µM; for `COCCN(C(C)=O)C1CCC2(SCCS2)c2[nH]c3ccccc3c21` (centres undefined): over 100 µM.
The same measure, in the same setting: the same measure for `[N-]=[N+]=Nc1c(C=O)c(=O)n2c3c(cccc13)CCC2`: 8.83 µM.
Still for that read-out and setting: to `NC(=O)NNc1nc2ccccc2c(=O)n1NC(=O)C(=O)Nc1ccc(Cl)cc1Cl` belongs over 100 µM.
In the case of `COC(O)C(=O)c1c2c(cc3c1CC1(Cc4cc5c(cc4C1)CCC5)C3)CCC2` (centres undefined), the TGI amounted to 27 µM.
On the same count and under the same terms, the same measure for `CCC1NC(=O)C1NC(=O)OC` (centres undefined): over 100 µM.

Another assay relates to UACC-62 melanoma. Description: inhibition of tumour cell growth, NCI panel, 48 h.
Take `COc1ccc2c(C)cc(N/N=C(\C)C=O)nc2c1`: the TGI was found to be 27.3 µM.
Same read-out and setting: to `S=c1sc2c(s1)SCCCCSCCCCSc1sc(=S)sc1SCCCCSCCCCS2` belongs over 100 µM; to `O=C1c2ccccc2S(=O)(=O)c2c1cccc2[N+](=O)[O-]`, 3.48 µM.
Still for that read-out and setting: to `O=C(CCCN1CCC2(CC1)OC(=O)N(c1ccccc1)C2=O)c1ccccc1` belongs over 100 µM; to `CCOC(CN=C=S)OCC`, over 10 µM; to `O=CC(=C(I)I)c1ccccc1`, 17.5 µM.
Same read-out and setting: to `O=C1C=C2C(=NC34CCCCC3C(c3ccccc3)C3=C(c5ccccc5CC3)N24)c2ccccc21` (centres undefined) belongs over 10 µM.
In turn, `[N-]=[N+]=Nc1c(C=O)c(=O)n2c3c(cccc13)CCC2` yielded a TGI of 26.5 µM.
The same measure, in the same setting: to `NC(=O)NNc1nc2ccccc2c(=O)n1NC(=O)C(=O)Nc1ccc(Cl)cc1Cl` belongs over 100 µM; to `CCC1NC(=O)C1NC(=O)OC` (centres undefined), over 100 µM.

A further assay concerns TK-10 renal. The assay can be described thus: inhibition of tumour cell growth, NCI panel, 48 h.
Turning to `COc1ccc2c(C)cc(N/N=C(\C)C=O)nc2c1`, the TGI amounted to 30.1 µM.
Molecule `S=c1sc2c(s1)SCCCCSCCCCSc1sc(=S)sc1SCCCCSCCCCS2` showed a TGI of over 100 µM.
On the same count and under the same terms, to `COc1ccc2oc(=N)c(C(=O)NCc3ccccc3)cc2c1` belongs over 100 µM.
On the same count and under the same terms, to `O=C1c2ccccc2S(=O)(=O)c2c1cccc2[N+](=O)[O-]` belongs over 10 µM; to `O=C(CCCN1CCC2(CC1)OC(=O)N(c1ccccc1)C2=O)c1ccccc1`, over 100 µM.
On the same count and under the same terms, the same measure for `O=C1c2c(ccc3c2CCCC3)CC12Cc1ccc3c(c1C2=O)CCCC3`: over 100 µM; for `CCOC(CN=C=S)OCC`: over 10 µM.
`O=CC(=C(I)I)c1ccccc1` gave a TGI of 5.83 µM.
Still for that read-out and setting: to `O=C1C=C2C(=NC34CCCCC3C(c3ccccc3)C3=C(c5ccccc5CC3)N24)c2ccccc21` (centres undefined) belongs over 10 µM.
The same measure, in the same setting: to `COCCN(C(C)=O)C1CCC2(SCCS2)c2[nH]c3ccccc3c21` (centres undefined) belongs over 100 µM.
Same read-out and setting: the same measure for `[N-]=[N+]=Nc1c(C=O)c(=O)n2c3c(cccc13)CCC2`: 10.1 µM.
As for `NC(=O)NNc1nc2ccccc2c(=O)n1NC(=O)C(=O)Nc1ccc(Cl)cc1Cl`, the TGI was over 100 µM.
The molecule `COC(O)C(=O)c1c2c(cc3c1CC1(Cc4cc5c(cc4C1)CCC5)C3)CCC2` (centres undefined) had a TGI of 32.1 µM.
The molecule `CCC1NC(=O)C1NC(=O)OC` (centres undefined) had a TGI of over 100 µM.

The test system of a further assay is HS 578T breast. Description: inhibition of tumour cell growth, NCI panel, 48 h.
`COc1ccc2c(C)cc(N/N=C(\C)C=O)nc2c1`: the TGI stood at 43.3 µM.
As to `S=c1sc2c(s1)SCCCCSCCCCSc1sc(=S)sc1SCCCCSCCCCS2`, the TGI is over 100 µM.
Regarding `COc1ccc2oc(=N)c(C(=O)NCc3ccccc3)cc2c1`, the TGI was 42.7 µM.
Same read-out and setting: to `O=C1c2ccccc2S(=O)(=O)c2c1cccc2[N+](=O)[O-]` belongs over 10 µM.
Still for that read-out and setting: the same measure for `O=C(CCCN1CCC2(CC1)OC(=O)N(c1ccccc1)C2=O)c1ccccc1`: over 100 µM; for `O=C1c2c(ccc3c2CCCC3)CC12Cc1ccc3c(c1C2=O)CCCC3`: over 100 µM; for `CCOC(CN=C=S)OCC`: over 10 µM.
Same read-out and setting: to `O=CC(=C(I)I)c1ccccc1` belongs 12.6 µM; to `O=C1C=C2C(=NC34CCCCC3C(c3ccccc3)C3=C(c5ccccc5CC3)N24)c2ccccc21` (centres undefined), over 10 µM.
As for `COCCN(C(C)=O)C1CCC2(SCCS2)c2[nH]c3ccccc3c21` (centres undefined), the TGI was over 100 µM.
Same read-out and setting: the same measure for `[N-]=[N+]=Nc1c(C=O)c(=O)n2c3c(cccc13)CCC2`: 57.3 µM; for `NC(=O)NNc1nc2ccccc2c(=O)n1NC(=O)C(=O)Nc1ccc(Cl)cc1Cl`: over 100 µM.
The same measure, in the same setting: to `COC(O)C(=O)c1c2c(cc3c1CC1(Cc4cc5c(cc4C1)CCC5)C3)CCC2` (centres undefined) belongs 53.3 µM; to `CCC1NC(=O)C1NC(=O)OC` (centres undefined), over 100 µM.

For the next assay, the system named is EKVX NSCLC. Description: inhibition of tumour cell growth, NCI panel, 48 h.
In turn, `COc1ccc2c(C)cc(N/N=C(\C)C=O)nc2c1` gave a TGI of 32.8 µM.
`S=c1sc2c(s1)SCCCCSCCCCSc1sc(=S)sc1SCCCCSCCCCS2` yielded a TGI of over 100 µM.
The same measure, in the same setting: to `COc1ccc2oc(=N)c(C(=O)NCc3ccccc3)cc2c1` belongs over 100 µM; to `O=C1c2ccccc2S(=O)(=O)c2c1cccc2[N+](=O)[O-]`, over 8.6 µM; to `O=C(CCCN1CCC2(CC1)OC(=O)N(c1ccccc1)C2=O)c1ccccc1`, over 100 µM.
Same read-out and setting: the same measure for `O=C1c2c(ccc3c2CCCC3)CC12Cc1ccc3c(c1C2=O)CCCC3`: over 100 µM; for `CCOC(CN=C=S)OCC`: over 10 µM.
The same measure, in the same setting: the same measure for `O=CC(=C(I)I)c1ccccc1`: 36.9 µM.
In the case of `O=C1C=C2C(=NC34CCCCC3C(c3ccccc3)C3=C(c5ccccc5CC3)N24)c2ccccc21` (centres undefined), the TGI was over 10 µM.
On the same count and under the same terms, the same measure for `COCCN(C(C)=O)C1CCC2(SCCS2)c2[nH]c3ccccc3c21` (centres undefined): over 100 µM; for `[N-]=[N+]=Nc1c(C=O)c(=O)n2c3c(cccc13)CCC2`: 50.5 µM.
On the same count and under the same terms, to `NC(=O)NNc1nc2ccccc2c(=O)n1NC(=O)C(=O)Nc1ccc(Cl)cc1Cl` belongs over 100 µM; to `COC(O)C(=O)c1c2c(cc3c1CC1(Cc4cc5c(cc4C1)CCC5)C3)CCC2` (centres undefined), 41.1 µM; to `CCC1NC(=O)C1NC(=O)OC` (centres undefined), over 100 µM.

A further assay has as its system A498 renal. Description: inhibition of tumour cell growth, NCI panel, 48 h.
Regarding `COc1ccc2c(C)cc(N/N=C(\C)C=O)nc2c1`, the TGI was determined as 27.9 µM.
